The source of these data is patent publication US8664408B2, “Synthesis process, and crystalline form of 4-{3-[cis-hexahydrocyclopenta[c]pyrrol-2(1H)-yl]proxy}benzamide hydrochloride and pharmaceutical compositions containing it” (Les Laboratoires Servier, priority 2011, dated 2014).

In one data set the test system is central nervous system. Description: pharmacological study. The source says: Neurodegenerative diseases more especially targeted are Alzheimer's disease, Parkinson's disease, Pick's disease, Korsakoff's disease, Lewy body dementias, frontal and subcortical dementias, frontotemporal dementias and vascular dementias.
Data set [1] is described as follows: storage stability of crystalline form I. The data set is classed as physicochemical. As to conditions: periods of up to 18 months. An excerpt: The form thereby obtained is sufficiently stable to allow its storage for an extended period without particular conditions for temperature, light, humidity or oxygen levels.
Data set [2] is described as follows: dissolution of crystalline form I. The data set is classed as physicochemical. The source says: Obtaining this crystalline form has the advantage of allowing especially rapid and efficient filtration and also the preparation of pharmaceutical formulations having a consistent and reproducible composition, which is especially advantageous when those formulations are intended for oral administration.

With `NC(=O)c1ccc(OCCCN2C[C@H]3CCC[C@H]3C2)cc1` [form I of its free base, 4-{3-[cis-Hexahydrocyclopenta[c]pyrrol-2(1H)-yl]propoxy}benzamide], the “activity on the central nervous system” value with central nervous system is “substantial activity”.
For `Cl.NC(=O)c1ccc(OCCCN2C[C@H]3CCC[C@H]3C2)cc1` [4-{3-[cis-Hexahydrocyclopenta[c]pyrrol-2(1H)-yl]propoxy}benzamide hydrochloride], in the data set on central nervous system, the “activity on the central nervous system” value is listed as “substantial activity”. The stability on storage entry in data set [1] (at 25° C. with a humidity level of 60% in a double bag of polyethylene), in data set [1] (at 30° C. with a humidity level of 65% in a double bag of polyethylene) and in data set [1] (at 30° C. with a humidity level of 85% in a double bag of polyethylene) was “very stable” each time. The dissolution properties entry in data set [2] is “noteworthy properties of immediate dissolution”.
